According to publication PMC9920732 (2023):

Tests used:
Assay in all cases: FRET quenching titration (qPCR instrument)
Conditions in all cases: 150 mM KCl, 15 mM NaCl; 20 mM Tris pH 7.4, 37 °C, 1 µM DNA; duplex shifted to quadruplex, complete at 50 µM pyridostatin
[1] = tested on: A:U (Tel22-T annealed to U-containing complement) (DNA, duplex, 2'-deoxyuridine at 10 of strand 2) AGGGTTAGGGTTAGGGTTAGGG/CCCTAACCCUAACCCTAACCCT
[2] = tested on: A:THF (Tel22-T annealed to complement with abasic site) (DNA, mismatch bulge abasic, tetrahydrofuran (THF) abasic site at 10 of strand 2) AGGGTTAGGGTTAGGGTTAGGG/CCCTAACCCNAACCCTAACCCT
[3] = tested on: A:Gap (Tel22-T annealed to two shorter complements, one-base gap) (DNA, duplex, 5'-phosphate on strand 3; one-base gap between strands 2 and 3) AGGGTTAGGGTTAGGGTTAGGG/CCCTAACCC/AACCCTAACCCT

Measured: binding

NCCOc1cc(C(=O)Nc2cc(OCCN)c3ccccc3n2)nc(C(=O)Nc2cc(OCCN)c3ccccc3n2)c1
yes: all assays above
